Data taken from patent US5587475A, “Derivatized virginiamycin M1” (University of Notre Dame, priority 1995, dated 1996).

Assays:
[1] = tested on: Micrococcus luteus; experiment: in vivo activity, M.I.C. on M. luteus (VM1 derivatives alone, without VS1); format: cell-based; set-up: key: (+) indicates multiplication of bacteria; conditions: M. luteus in LBroth, 18 h at 37° C. with shaking
Description: The synthesized derivatives of the present invention have been tested for antibacterial activity (in solid and liquid medium), ribosome binding affinity and synergistic activity with virginiamycin S. The tests for biological activity were carried out both in vivo and in vitro. The in vivo tests were carried out using Micrococcus luteus as the test organism with the VM1 derivatives alone (without VS1). Minimum inhibitory concentrations (MIC values) were determined on agar broth plates by standard microbiological procedures, with a range of concentrations of the VM derivatives applied to the plates. The in vitro tests of the VM derivatives were performed together with VS1, and took advantage of the unique fluorescence (F) inherent in VS1. The results are summarized in the following tables, wherein the activities are compared to virginiamycin (VM1). | M. luteus in LBroth, 18 h at 37° C. with shaking. | M. luteus in LBroth, 18 h at 37° C. with shaking.

[2] = tested on: ribosomes; experiment: in vitro activity: binding to free ribosomes, VS1 fluorescence with erythromycin displacement; set-up: key to kobs (symbol): (*) too small to be measured. t/2 is very large; conditions: in vitro Activity of VM1-Carboxylic Acid Derivatives; together with VS1, fluorescence
Description: The in vivo tests were carried out using Micrococcus luteus as the test organism with the VM1 derivatives alone (without VS1). Minimum inhibitory concentrations (MIC values) were determined on agar broth plates by standard microbiological procedures, with a range of concentrations of the VM derivatives applied to the plates. The in vitro tests of the VM derivatives were performed together with VS1, and took advantage of the unique fluorescence (F) inherent in VS1. […] Using spectrofluorometry, an increase in fluorescence can be measured when ribosomes are added to a VS1 solution. Erythromycin is known to bind at the same position on the ribosome (50-S subunit) as VS1, and when it is added to the VS1 /ribosomal mixture, a decrease in fluorescence is seen. If VM1 is added to the VS1 /ribosomal/erythromycin mixture, an increase in fluorescence can be measured. Presumably, a conformational change of the ribosomes occurs upon binding of VM1, which allows VS1 to bind preferentially and releases erythromycin from the ribosomes. The VM1 derivatives would also display this type of behavior if they bind to the ribosomes.

CC1=C\[C@@H](O)CC(=O)Cc2nc(co2)C(=O)N2CC[C@H](SCC(=O)O)[C@H]2C(=O)O[C@H](C(C)C)[C@H](C)/C=C/C(=O)NC\C=C\1 [Carboxylic a S,R]
*: kobs (symbol) [2]
+: in vivo Acitivity of VM1-Carboxylic Derivatives, M.I.C. on M. luteus (multiplication of bacteria) ([1]; Concentration 0.0625 μg/mL) | in vivo Acitivity of VM1-Carboxylic Derivatives, M.I.C. on M. luteus (multiplication of bacteria) ([1]; Concentration 0.125 μg/mL) | in vivo Acitivity of VM1-Carboxylic Derivatives, M.I.C. on M. luteus (multiplication of bacteria) ([1]; Concentration 0.25 μg/mL) | in vivo Acitivity of VM1-Carboxylic Derivatives, M.I.C. on M. luteus (multiplication of bacteria) ([1]; Concentration 0.5 μg/mL) | in vivo Acitivity of VM1-Carboxylic Derivatives, M.I.C. on M. luteus (multiplication of bacteria) ([1]; Concentration 1 μg/mL) | in vivo Acitivity of VM1-Carboxylic Derivatives, M.I.C. on M. luteus (multiplication of bacteria) ([1]; Concentration 2 μg/mL) | in vivo Acitivity of VM1-Carboxylic Derivatives, M.I.C. on M. luteus (multiplication of bacteria) ([1]; Concentration 4 μg/mL) | in vivo Acitivity of VM1-Carboxylic Derivatives, M.I.C. on M. luteus (multiplication of bacteria) ([1]; Concentration 8 μg/mL) | in vivo Acitivity of VM1-Carboxylic Derivatives, M.I.C. on M. luteus (multiplication of bacteria) ([1]; Concentration 16 μg/mL) | in vivo Acitivity of VM1-Carboxylic Derivatives, M.I.C. on M. luteus (multiplication of bacteria) ([1]; Concentration 32 μg/mL) | in vivo Acitivity of VM1-Carboxylic Derivatives, M.I.C. on M. luteus (multiplication of bacteria) ([1]; Concentration 128 μg/mL)
